# Reference: patent US20140088144A1, “INHIBITING MICROBIAL INFECTIONS” (THE UNIVERSITY OF KANSAS, priority 2012, published 2014)
# Legend:
# MBP-NS1-NTD = assay: Fluorescence-based thermal shift assay (Sypro Orange), control protein; assay type: binding; conditions: 0 or 80 μM SE-1, 1 μM protein
# Protocol: Binding of SE-1 to purified VirF was tested by comparing the VirF melting temperature (Tm) in the absence and presence of SE-1 using a thermal shift assay with the fluorescent dye Sypro Orange (Molecular Probes). This method is also known as differential scanning fluorimetry or DSF. As a control, we tested binding of SE-1 to the purified, unrelated, MBP-NS1-NTD protein (greater than 95% pure). Reactions contained (final concentrations): 1 μM protein; 20×Sypro Orange (a 250-fold dilution of the purchased 5,000× stock solution); 0.76×EMSA buffer (7.6 mM Tris-acetate, pH 7.4, 0.76 mM KEDTA, 38 mM KCl, and 0.76 mM DTT); 4% DMSO; and 0 or 80 μM SE-1. The reactions were carried out in 0.1 ml PCR low profile 8-tube strips with optically clear flat caps (USA Scientific) in a StepOnePlus™ Real-Time PCR System (Applied Biosystems), heating from 25 to 99° C. in increments of 0.8° C. The data was analyzed using the Boltzmann sigmoidal model in the software Prism (GraphPad). Data points before and after the fluorescence intensity minimum and maximum, respectively, were excluded from fitting. The ΔTm values are the average of three independent experiments with two replicates in each experiment. A single, representative, experiment is shown.
# [1] = system: Shigella invasion of L-929 cells; assay: Shigella invasion assay (gentamycin protection) in L-929 cells; assay type: cell-based, S. flexneri; conditions: for invasion decrease relative to no inhibitor: Shigella pre-grown with SE-1
# Protocol: S. flexneri ipgD^− (SME4331) and mxiH^− (SB116) mutant strains were grown overnight at 30° C. and then diluted to an OD600 of ˜0.1 into TSB plus ampicillin. SE-1 (in DMSO) was added to the cultures at final concentrations of 0, 20, or 40 μM SE-1 and 0.3% DMSO. These cultures and SB116 (no SE-1) were grown at 37° C. in 24-well plates (each with 1.2 ml), in the temperature-controlled chamber of a PowerWave XS plate reader (BioTek Instruments). Bacterial growth was continued at 37° C. with shaking and OD600 monitored every 15 min. A separate sample of SME4331 was grown at 30° C. L-929 cells (mouse fibroblasts, used previously for Shigella invasion assays) that had been grown overnight to ˜90% confluency in 24-well plates were washed 3 times with 1 ml of RPMI each (without FBS or antibiotics), and the final wash was removed by aspiration. (All L-929 incubation steps were carried out at 37° C. in a 5% CO2 humidified atmosphere.) When the OD600 of the bacterial cultures reached 1.0 (˜2.5 h), samples were diluted 100-fold in pre-warmed RPMI (without FBS or antibiotics) and then 300 μl was added to each monolayer of L-929 cells, for a multiplicity of infection of roughly 20. In a control sample, 40 μM SE-1 and bacteria grown at 37° C. without SE-1 were added at the same time to L-929 cells. The 24-well plate was centrifuged (2000×g) for 5 min at room temperature to initiate bacterial-host cell contact, incubated for 45 min at 37° C., washed three times with 1 ml RPMI containing 50 μg/ml gentamycin (or without gentamycin for the control), and incubated at 37° C. for 2 h. Cells were again washed three times with 1 ml RPMI and then lysed in 100 μl of PBS (Mediatech) containing 0.1% triton X-100 (Promega, Madison, Wis.) for 10 min at room temperature. The 100 μl lysates from the gentamycin treated and untreated L-929 cells were mixed with 400 μl TSB, and 100 μl of 1:50 and 1:250 further dilutions were plated onto TSB agar containing ampicillin. Plates were incubated overnight at 37° C. and colonies were counted. The number of colonies obtained from gentamycin treated samples was divided by the number of colonies from control samples without gentamycin and multiplied by 100 to calculate the invasion index.
smiles,measurement,setting,value
"CCCCN1C=C(c2ccc3ccccc3n2)C(C[N+](=O)[O-])c2ccccc21 (centres unmarked) [Compound 1, 1-butyl-4-(nitromethyl)-3-quinolin-2-yl-4H-quinoline]",change in melting temperature of MBP-NS1-NTD,MBP-NS1-NTD,0.15 °C
same,invasion decrease relative to no inhibitor,[1]; 20 μM,1.7 fold
same,invasion when SE-1 and Shigella added at the same time to L-929 cells,"[1]; 40 μM SE-1, Shigella grown at 37° C. without inhibitor",invaded to the same extent
same,invasion decrease relative to no inhibitor,[1]; 40 μM,3 fold
same,inhibition at 40 µM,"[1]; Shigella, L929, read-out: maximum inhibition of invasion",70%
